Results: the RepoRT retention time repository (doi:10.1021/acs.analchem.1c00972)

Key:
[1] = RP, Waters ACQUITY UPLC BEH C18, 100 × 1 mm, 1.7 µm, 50 °C, 0.3 mL/min, estimated dead time 0.17 min; A: water + 0.1% formic acid + 20 mM ammonium formate; B: methanol + 0.1% formic acid + 20 mM ammonium formate; gradient (min/%B) 0/0 15/100 21/100 22/0 30/0; settings: stereoisomer not certain
[2] = RP, Waters ACQUITY UPLC BEH C18, 100 × 1 mm, 1.7 µm, 50 °C, 0.3 mL/min, estimated dead time 0.17 min; A: water + 10 mM ammonium bicarbonate; B: 10% water + 90% methanol + 10 mM ammonium bicarbonate; gradient (min/%B) 0/0 15/100 21/100 22/0 30/0; settings: stereoisomer not certain

| SMILES | LC retention time [1] [min] | LC retention time [2] [min] |
| --- | --- | --- |
| CC(=O)OC(C)(C)C=CC(=O)C(C)(O)C1C(O)CC2(C)C3CC=C4C(C=C(O)C(=O)C4(C)C)C3(C)C(=O)CC12C (stereo not drawn) [Cucurbitacin E] | 14.4 | 14.7 |
| CC(C)(C)C(O)C(Cc1ccc(Cl)cc1Cl)n1cncn1 (stereo not drawn) [Dichlobutrazol] | 15.4 | 15.8 |
| C=C1C(=O)OC2CCN3CC=C(COC(=O)C(C)(O)C(C)C1C)C23 (stereo not drawn) [Senecivernine] | 8.55 | 12.7 |
| O=C1CCCC2C3CCCN4CCCC(CN12)C34 (stereo not drawn) [Matrine] | 5.2 | 13 |
| O=C1NC2C(=CC(O)C(O)C2O)c2cc3c(c(O)c21)OCO3 (stereo not drawn) [Narciclasine] | 7.92 | 7.93 |
| Oc1cc(Cl)c(Cl)c(Cl)c1 [3,4,5-trichlorophenol] | 15.2 | 14.2 |
| CCCCCCCCCCCC(=O)NCC(C)O (stereo not drawn) [Lauric isopropanolamide] | 16.7 | 17.1 |
| CCCCC(CC)COP(=O)(O)OCC(CC)CCCC (stereo not drawn) [Bis(2-ethylhexyl)phosphate] | 17.2 | 17.2 |
| COC(C)C(O)(C(=O)OCC1=CCN2CCC(O)C12)C(C)C (stereo not drawn) [Heliotrine] | 8.05 | 11.6 |
| CC1CC2(OC2C)C(=O)OC2CC[N+]3([O-])CC=C(COC(=O)C1(C)O)C23 (stereo not drawn) [Jacobine N-oxide] | 6.84 | 7.35 |
| Cc1[nH]c(=O)n(C(C)(C)C)c(=O)c1Cl [Terbacil] | 11.8 | 12 |
| CC(C1CC1)C(O)(Cn1cncn1)c1ccc(Cl)cc1 (stereo not drawn) [Cyproconazole] | 14.5 | 15 |
| CNC(=O)Oc1cccc2c1OC(C)(C)C2 [Carbofuran] | 11.8 | 12 |
| CNC(=O)C(C)SCCSP(=O)(OC)OC (stereo not drawn) [Vamidothion (Vamidoate)] | 9.33 | 9.45 |
| O=C(O)c1ccc(Cl)cc1Cl [2,4-Dichlorobenzoic acid] | 12.7 | 7.64 |
| CC1(C)CCC2(C(=O)O)CCC3(C)C(=CCC4C5(C)CCC(O)C(C)(CO)C5CCC43C)C2C1 (stereo not drawn) [Hederagenin] | 17.2 | 15.9 |
| O=C(O)COc1ccc(Cl)cc1Cl [2,4-Dichlorophenoxyacetic acid] | 12.9 | 10.6 |
| CC(NC(C)(C)C)C(=O)c1cccc(Cl)c1 (stereo not drawn) [Bupropion] | 10.5 | 15.6 |

| SMILES | LC retention time [1] [min] | LC retention time [2] [min] |
| --- | --- | --- |
| CC1CCc2cc(F)cc3c(=O)c(C(=O)O)cn1c23 (stereo not drawn) [Flumequine] | 11.8 | 8.91 |
| COP(=S)(OC)SCn1nnc2ccccc2c1=O [Azinphos methyl] | 13.4 | 13.6 |
| CCC(=O)OC1(C(=O)SCF)C(C)CC2C3CC(F)C4=CC(=O)C=CC4(C)C3(F)C(O)CC21C (stereo not drawn) [Fluticasone propionate] | 15.3 | 15.6 |
| C#CC1(OC(C)=O)CCC2C3CCC4=CC(=O)CCC4C3CCC21C (stereo not drawn) [Norethisterone acetate] | 15.4 | 15.7 |
| CN1CCC23c4c5ccc(O)c4OC2C(O)C=CC3C1C5 (stereo not drawn) [Morphine] | 4.19 | 10.4 |
| CCS(=O)(=O)c1nnc(N(C)C(=O)NC)s1 [Ethidimuron] | 8.76 | 8.81 |
| CCCCOC(=O)N(C)SN(C)C(=O)Oc1cccc2c1OC(C)(C)C2 [Furathiocarb] | 16.7 | 17.1 |
| CC1CCC2(OC1)OC1CC3C4CC=C5CC(O)CCC5(C)C4CCC3(C)C1C2C (stereo not drawn) [Diosgenin] | 19 | 19.6 |
| COc1ccc(-c2ccccc2)cc1NNC(=O)OC(C)C [Bifenazate] | 14.7 | 15 |
| COCN(COC)c1nc(N(COC)COC)nc(N(COC)COC)n1 [Hexa(methoxymethyl)melamine] | 12.6 | 12.9 |
| CC(C)CC(C)Nc1ccc(Nc2ccccc2)cc1 (stereo not drawn) [N-(1,3-Dimethylbutyl)-N'-phenyl-1,4-phenylenediamine] | 13.3 | 17.2 |
| O=C1Nc2ccc(Cl)cc2C(c2ccccc2)=NC1O (stereo not drawn) [Oxazepam] | 13.2 | 13.5 |
| Cc1nccc2c1[nH]c1ccccc12 [Harman] | 9.01 | 13.4 |
| O=C(Nc1ccccc1)c1ccccc1I [Benodanil] | 12.7 | 12.9 |
| CC=C1CC(C)C(O)(CO)C(=O)OCC2=CC[N+]3([O-])CCC(OC1=O)C23 (stereo not drawn) [Retrorsine N-oxide] | 7.74 | 8.61 |
| Oc1ccc(C(c2ccc(O)cc2)(C(F)(F)F)C(F)(F)F)cc1 [Bisphenol AF] | 15.9 | 14.7 |
| CNC(=O)N(C)c1nnc(C(C)(C)C)s1 [Tebuthiuron] | 11.9 | 12.1 |
| CCC(C)C1OC2(C=CC1C)CC1CC(CC=C(C)C(OC3CC(OC)C(OC4CC(OC)C(NC)C(C)O4)C(C)O3)C(C)C=CC=C3COC4C(O)C(C)=CC(C(=O)O1)C34O)O2 (stereo not drawn) [Emamectin B1a] | 17.1 | 18.6 |

Second part, the compound after the results:

| LC retention time [1] [min] | LC retention time [2] [min] | SMILES |
| --- | --- | --- |
| 13.3 | 16.1 | CC(=O)N1CCN(c2ccc(OCC3COC(Cn4ccnc4)(c4ccc(Cl)cc4Cl)O3)cc2)CC1 (stereo not drawn) [Ketoconazole] |
| 10.7 | 10.7 | CN(C)S(=O)(=O)Nc1ccccc1 [DMSA] |
| 14.9 | 13.4 | COc1ccccc1Oc1c(NS(=O)(=O)c2ccc(C(C)(C)C)cc2)nc(-c2ncccn2)nc1OCCO [Bosentan] |
| 15.7 | 16 | O=Cc1ccccc1Nc1ccccc1Cl [2-(2-(Chlorophenyl)amino)benzaldehyde] |
| 11 | 8.62 | CCc1cccc(C)c1N(C(=O)CS(=O)(=O)O)C(C)C(=O)O (stereo not drawn) |
| 9.58 | 12.4 | COCCc1ccc(OCC(O)CNC(C)C)cc1 (stereo not drawn) [Metoprolol] |
| 7.75 | 7.74 | Cc1c(C=O)c(=O)n(-c2ccccc2)n1C [4-Formyl-antipyrine] |
| 7.76 | 3.05 | O=C1C(O)Oc2ccccc2N1O (stereo not drawn) [DIBOA] |
| 11.4 | 11.6 | CCNS(=O)(=O)c1ccccc1C [N-Ethyl-o-toluenesulfonamide] |
| 9.64 | 12.4 | Cc1nccn1CC1CCc2c(c3ccccc3n2C)C1=O (stereo not drawn) [Ondansetron] |
| 10.7 | 10.8 | NC(=O)N1c2ccccc2C=Cc2cc(O)ccc21 [2-Hydroxycarbamazepine] |
| 14.7 | 14.6 | COC1C=COC2(C)Oc3c(C)c(O)c4c(O)c(c5c(nc6cc(C)ccn65)c4c3C2=O)NC(=O)C(C)=CC=CC(C)C(O)C(C)C(O)C(C)C(OC(C)=O)C1C (stereo not drawn) [Rifaximin] |
| 5.17 | 7.24 | CC(=O)N(C)c1ccc(N)cc1 [N-(4-Aminophenyl)-N-methyl-acetamid] |
| 13.5 | 15.3 | COCCCCC(=NOCCN)c1ccc(C(F)(F)F)cc1 [Fluvoxamine] |
| 13.7 | 10.7 | O=C(O)Cc1ccccc1Nc1c(Cl)cc(O)cc1Cl [4-Hydroxy-Diclofenac] |
| 11.3 | 11.5 | CC(C)(C#N)c1cc(Cn2cncn2)cc(C(C)(C)C#N)c1 [Anastrozole] |
| 6.62 | 6.84 | CC[N+]1([O-])CCCC1CNC(=O)c1cc(S(N)(=O)=O)ccc1OC (stereo not drawn) [Sulpiride N-Oxide] |
| 12.2 | 12.5 | CCNc1ccc2c(C)cc(=O)oc2c1 [7-(Ethylamino)-4-methylcoumarin] |
| 9.4 | 14 | COC(=O)CC(O)(CCCC(C)(C)O)C(=O)OC1C(OC)=CC23CCCN2CCc2cc4c(cc2C13)OCO4 (stereo not drawn) [Homoharringtonine] |
| 12.5 | 16.8 | CC(CN1c2ccccc2Sc2ccccc21)N(C)C (stereo not drawn) [Promethazin] |
| 14 | 18.7 | CN(CC=CC#CC(C)(C)C)Cc1cccc2ccccc12 [Terbinafine] |
| 11.6 | 12.4 | Cc1cccc(Nc2ccncc2S(=O)(=O)NC(=O)NC(C)C)c1 [Torasemide] |
| 8.1 | 4.75 | CC(=O)Nc1ccc(N)cc1 [4'-Aminoacetanilide] |
| 15.8 | 18.4 | CCC(=C(c1ccccc1)c1ccc(OCCN(C)C)cc1)c1ccccc1 [Tamoxifen] |
| 13.6 | 17.2 | CCN(CC)CC#CCOC(=O)C(O)(c1ccccc1)C1CCCCC1 (stereo not drawn) [Oxybutynin] |
| 14.2 | 14.6 | CCCc1nc2c(C)cc(-c3nc4ccccc4n3C)cc2n1Cc1ccc(-c2ccccc2C(=O)O)cc1 [Telmisartan] |
| 13.1 | 13.4 | CC(C)CN(CC(O)C(Cc1ccccc1)NC(=O)OC1COC2OCCC12)S(=O)(=O)c1ccc(N)cc1 (stereo not drawn) [Darunavir] |
| 12.8 | 15 | Fc1ccc(C2CCNCC2COc2ccc3c(c2)OCO3)cc1 (stereo not drawn) [Paroxetine] |
